Test results taken from PMC9578445, “Association of respiratory failure with inhibition of NaV1.6 in the phrenic nerve” (Channels, 2022).
Read-outs that look alike come from different tables or passages of the source.

Columns and labels:
[1] = Permeability (Papp, passive diffusion); format: in vitro ADME
[2] = tested on: rat diaphragm with the phrenic nerve attached; assay: Rat hemisected diaphragm (HMD) assay, ex vivo; details: for IC50: relative to 3 μM d-Tubocurarine relaxation = 100%; for inhibition in rat HMD assay: at both 10 and 30 μM
Text: Wistar derived male or female rats weighing 450 ± 50 g were euthanized by CO2 overexposure. The diaphragm with the phrenic nerve attached was removed and placed into a tissue recording chamber containing Krebs solution pH 7.4; (composition in g/L: NaCl 6.89, KCl 0.35, CaCl2 0.277, KH2PO4 0.163, MgSO4 · 7H2O 0.296, NaHCO3 2.1 and glucose 1.8). A piece of cotton was attached to the top of the phrenic nerve over the jaw electrodes. A second piece of cotton was attached to the tip of the tendinous tissue at the apex of the diaphragm preparation for attachment to an isometric transducer under 1 g tension. The rib of the diaphragm preparation was secured to the bottom of the jaw electrodes. […] The recording chamber was placed into a water bath kept at a temperature of 32°C by means of a suitable thermoregulator consisting of a thermostat and heating elements in addition to a water circulator.
The isometric transducer was connected to an amplifier and the tissue response was recorded on a two-pen recorder set at 1 volt. Field stimulation [S48 Stimulator (GRASS) set at 0.2 Hz (12 pulses per minute), 0.5 ms pulse duration at 70% of maximum voltage (about 3 to 5 volts)] delivered to two circle platinum electrodes (0.2 cm in diameter) was applied for transmural tissue stimulation. Each tissue preparation was washed three times in Krebs solution every 15 minutes for a 60 minute equilibration period and permitted to develop contractions. D-Tubocurarine (300 µM dissolved in 0.1 mL distilled water for a final 3 µM bath concentration) was added to establish an isometrically recorded control relaxation response ranging from one to two centimeters and corresponding to 60–70% of maximal relaxation. […] The tissue was then washed periodically until the contraction returns to the baseline value.
Sixty minutes later, the test compound was added (e.g. 30 mM in 0.01 mL vehicle of 100% DMSO, for final concentration of 30 µM test compound and 0.1% DMSO). A test compound recorded relaxation response of 50% or more (≥50%) within 5 minutes, relative to the 3 µM d-Tubocurarine control response, indicates neuromuscular blocking activity.

[3] = Plasma exposure in rat CV/R assay; format: in vivo; details: for concentration at 15 min / concentration at 30 min: CD, plasma, iv; for concentration at 15 min / concentration at 30 min / Total [plasma] / Unbound [plasma]: rat, IV infusion; for unbound plasma concentration just prior to death: blood samples taken just prior to death; for Total [plasma] / Unbound [plasma]: just prior to death
Text: For in vivo CVR and phrenic nerve activity studies, all raw signals were amplified via general purposed biological amplifier (filter settings DC – 3-5 KhZ) then digitized, calibrated and collected at a minimum of 500 Hz (1000 Hz for ECG and 2000 Hz for cardiac electrograms, and 10 KHz for phrenic nerve activity) using Notocord-HEM data acquisition and analysis software. The raw signal was filtered following acquisition with a bandpass filter set to 200–800 Hz). Vehicle (100% dimethylformamdide, DMF) or compound formulated in the vehicle was administered as a 30-minute IV infusion at 0.0167 μL/g body weight/min. […] Exposure in rats was determined in separate pharmacokinetics experiments where compounds were administered via IV dosing.

[4] = tested on: anesthetized male CD rats; assay: Rat Cardiovascular/Respiratory (CV/R) assay; format: in vivo; parameters: ∆ QRS Interval: unit not given here; details: for ∆ Heart Rate / ∆ Mean Arterial Pressure / ∆ QRS Interval / ∆ respiratory rate: rat
Description: Male CD Rats were anesthetized with ketamine:xylazine (85 mg/kg:5 mg/kg, im, to effect). The left femoral artery and vein were cannulated for the measurement of blood pressure and the administration of test agent, respectively. The right femoral vein was cannulated for maintenance anesthetic infusion (ketamine:xylazine ~35 mg/kg/hr:1.5 mg/kg/hr, iv, to effect). Needle electrodes were placed subcutaneously at the right axillary and left inguinal areas to record lead II ECGs. When ECG intervals were required to determine effect on cardiac conduction a pacing/recording electrode catheter was advanced through the right jugular vein to pace the heart. ECG intervals were then measured at a fixed cardiac rate of 400 beats/minute to remove any variability of intrinsic heart rate on these parameters.
To determine the test agent-dependent effect on respiratory rate, a tracheotomy was also performed using a short length of polyethylene tubing containing a thermistor (AD Instruments). The change in temperature detected by the thermistor was used to calculate respiratory rate.
For in vivo CVR and phrenic nerve activity studies, all raw signals were amplified via general purposed biological amplifier (filter settings DC – 3-5 KhZ) then digitized, calibrated and collected at a minimum of 500 Hz (1000 Hz for ECG and 2000 Hz for cardiac electrograms, and 10 KHz for phrenic nerve activity) using Notocord-HEM data acquisition and analysis software. The raw signal was filtered following acquisition with a bandpass filter set to 200–800 Hz). Vehicle (100% dimethylformamdide, DMF) or compound formulated in the vehicle was administered as a 30-minute IV infusion at 0.0167 μL/g body weight/min. Doses were selected to achieve unbound plasma concentrations in range of measured Nav1.6 IC50 values when infused at 0.0167uL/g body weight/min based on measured rat clearance, plasma protein binding and Nav1.6 IC50. Exposure in rats was determined in separate pharmacokinetics experiments where compounds were administered via IV dosing.

[5] = 14 mg/kg, 14 mg/kg, read-out: Total [plasma]
[6] = 14 mg/kg, 14 mg/kg, read-out: Unbound [plasma]
[7] = male, 7 mg/kg, 7 mg/kg, read-out: Total [plasma]
[8] = male, 7 mg/kg, 7 mg/kg, read-out: Unbound [plasma]
[9] = male, 30 mg/kg, 30 mg/kg, read-out: Total [plasma]
[10] = male, 30 mg/kg, 30 mg/kg, read-out: Unbound [plasma]
[11] = rat CV/R assay, IV infusion, doses tested
[12] = 10 mg/kg, 10 mg/kg, read-out: Total [plasma]
[13] = 10 mg/kg, 10 mg/kg, read-out: Unbound [plasma]
[14] = 1 mg/kg, 1 mg/kg, read-out: Total [plasma]
[15] = 1 mg/kg, 1 mg/kg, read-out: Unbound [plasma]

O=S(=O)(Nc1nccs1)c1cc(Cl)c(NCCCCNC[C@H]2CCCN2)cc1F [SSCI-1]
Papp [1]: 1.027 10e-6cm/s | inhibition of diaphragm contraction / respiratory effect in HMD assay [2]: does not exhibit respiratory effect | inhibition at 30 µM ([2]; Rattus norvegicus, highest concentration tested of 30 μM): < 50% | IC50 ([2]; Rattus norvegicus): > 30000 nM | inhibition in rat HMD assay [2]: little effect | concentration at 15 min [3, 5]: 88.3 ± 5.6 µM | concentration at 15 min [3, 6]: 5.9 ± 0.4 µM | concentration at 30 min [3, 5]: 104 ± 5.2 µM | concentration at 30 min [3, 6]: 7 ± 0.3 µM | concentration at 15 min [3, 7]: 54.4 ± 3.2 µM | concentration at 15 min [3, 8]: 3.6 ± 0.2 µM | concentration at 30 min [3, 7]: 76.7 ± 4.1 µM | concentration at 30 min [3, 8]: 5.1 ± 0.3 µM | concentration at 15 min [3, 9]: 230 ± 12 µM | concentration at 15 min [3, 10]: 15.4 ± 0.8 µM | concentration at 30 min [3, 9]: 252 ± 4 µM | concentration at 30 min [3, 10]: 16.9 ± 0.3 µM | unbound plasma exposure ([3]; rat CV/R assay, no mortality): 16.9 µM | mortality [4, 11]: No mortality | effects on cardiovascular and respiratory parameters ([4]; rat CV/R assay, at unbound plasma exposure 16.9 μM): minimal effects | ∆ Heart Rate ([4]; IV infusion, 7 mg/kg, 15 min): 0.5 ± 2.2 bpm | ∆ Mean Arterial Pressure ([4]; IV infusion, 7 mg/kg, 15 min): 4.1 ± 0.3 mmHg | ∆ QRS Interval ([4]; IV infusion, 7 mg/kg, 15 min): 1.4 ± 0.6 | ∆ respiratory rate ([4]; IV infusion, 7 mg/kg, 15 min): 0.8 ± 1.8% | ∆ Heart Rate ([4]; IV infusion, 7 mg/kg, 30 min): −1.8 ± 3.7 bpm | ∆ Mean Arterial Pressure ([4]; IV infusion, 7 mg/kg, 30 min): 2.7 ± 0.5 mmHg | ∆ QRS Interval ([4]; IV infusion, 7 mg/kg, 30 min): 2.5 ± 1.1 | ∆ respiratory rate ([4]; IV infusion, 7 mg/kg, 30 min): 4.5 ± 1.7% | ∆ Heart Rate ([4]; IV infusion, 14 mg/kg, 15 min): −1.4 ± 1.5 bpm | ∆ Mean Arterial Pressure ([4]; IV infusion, 14 mg/kg, 15 min): 2.2 ± 1.1 mmHg | ∆ QRS Interval ([4]; IV infusion, 14 mg/kg, 15 min): 0.4 ± 0.6 | ∆ respiratory rate ([4]; IV infusion, 14 mg/kg, 15 min): 1.9 ± 1.6% | ∆ Heart Rate ([4]; IV infusion, 14 mg/kg, 30 min): −0.5 ± 2.9 bpm | ∆ Mean Arterial Pressure ([4]; IV infusion, 14 mg/kg, 30 min): 2.3 ± 2.5 mmHg | ∆ QRS Interval ([4]; IV infusion, 14 mg/kg, 30 min): 0.4 ± 0.7 | ∆ respiratory rate ([4]; IV infusion, 14 mg/kg, 30 min): 4.0 ± 1.0% | ∆ Heart Rate ([4]; IV infusion, 30 mg/kg, 15 min): −0.4 ± 1.2 bpm | ∆ Mean Arterial Pressure ([4]; IV infusion, 30 mg/kg, 15 min): 10.5 ± 1.5 mmHg | ∆ QRS Interval ([4]; IV infusion, 30 mg/kg, 15 min): 3.7 ± 0.9 | ∆ respiratory rate ([4]; IV infusion, 30 mg/kg, 15 min): −10.1 ± 0.9% | ∆ Heart Rate ([4]; IV infusion, 30 mg/kg, 30 min): 2.1 ± 1.4 bpm | ∆ Mean Arterial Pressure ([4]; IV infusion, 30 mg/kg, 30 min): 4.6 ± 1.9 mmHg | ∆ QRS Interval ([4]; IV infusion, 30 mg/kg, 30 min): 3.9 ± 0.8 | ∆ respiratory rate ([4]; IV infusion, 30 mg/kg, 30 min): −24.8 ± 3.3%

C[C@H](c1cccc2c1CNCC2)n1c(=O)oc2cc(S(=O)(=O)Nc3ncns3)ccc21 [SSCI-3]
Papp [1]: 1.716 10e-6cm/s | IC50 ([2]; Rattus norvegicus): 2700 nM | concentration at 15 min [3, 12]: 32.1 ± 2 µM | concentration at 15 min [3, 13]: 3.8 ± 0.2 µM | concentration at 30 min [3, 12]: 43.5 ± 1.8 µM | concentration at 30 min [3, 13]: 5.1 ± 0.2 µM | concentration at 15 min [3, 9]: 108 ± 4.1 µM | concentration at 15 min [3, 10]: 12.7 ± 0.5 µM | unbound plasma concentration just prior to death ([3]; rat CV/R assay): 20.2 µM | Total [plasma] ([3]; 30 mg/kg, 20–21 min): 171.2 ± 10.2a μM | Unbound [plasma] ([3]; 30 mg/kg, 20–21 min): 20.2 ± 1.2a μM | mortality ([4]; rat CV/R assay, IV, 10 mg/kg): No mortality | time of mortality ([4]; rat CV/R assay, IV, 30 mg/kg): 20 to 21 min | ∆ Heart Rate ([4]; IV infusion, 10 mg/kg, 15 min): 3.0 ± 0.7 bpm | ∆ Mean Arterial Pressure ([4]; IV infusion, 10 mg/kg, 15 min): 12.9 ± 2.1 mmHg | ∆ respiratory rate ([4]; IV infusion, 10 mg/kg, 15 min): −8.5 ± 1.8% | ∆ Heart Rate ([4]; IV infusion, 10 mg/kg, 30 min): 5.0 ± 1.9 bpm | ∆ Mean Arterial Pressure ([4]; IV infusion, 10 mg/kg, 30 min): 6.8 ± 8.7 mmHg | ∆ QRS Interval ([4]; IV infusion, 10 mg/kg, 30 min): 0.5 ± 0.2 | ∆ respiratory rate ([4]; IV infusion, 10 mg/kg, 30 min): −3.2 ± 1.8% | ∆ respiratory rate ([4]; IV infusion, 30 mg/kg, 20–21 min): −100% | ∆ Heart Rate ([4]; IV infusion, 30 mg/kg, 15 min): 5.6 ± 1.7 bpm | ∆ Mean Arterial Pressure ([4]; IV infusion, 30 mg/kg, 15 min): 13.8 ± 0.7 mmHg | ∆ QRS Interval ([4]; IV infusion, 30 mg/kg, 15 min): 0.3 + 0.4 | ∆ respiratory rate ([4]; IV infusion, 30 mg/kg, 15 min): −6.2 ± 5.4%

COc1ccc(CCC(c2cccc3c2CNCC3)n2c(=O)oc3cc(S(=O)(=O)Nc4ncns4)c(F)cc32)cc1 (stereo not shown) [SSCI-6]
Ex vivo HMD inhibition ([2]; at 10 (μM), relative to 3 μM d-Tubocurarine = 100%): 130% at 10 | inhibition in rat HMD assay [2]: supramaximal inhibition | concentration at 15 min [3, 14]: 1.4 ± 0.2 µM | concentration at 15 min [3, 15]: 0.025 ± 0.004 µM | concentration at 30 min [3, 14]: 1.5 µM | concentration at 30 min [3, 15]: 0.027 µM | unbound plasma concentration just prior to death ([3]; rat CV/R assay): 0.05 µM | Total [plasma] ([3]; 1 mg/kg, 20–23 min): 2.8a μM | Unbound [plasma] ([3]; 1 mg/kg, 20–23 min): 0.050a μM | mortality [4, 11]: mortality | ∆ respiratory rate ([4]; IV infusion, 1 mg/kg, 20–23 min): −100% | ∆ Heart Rate ([4]; IV infusion, 1 mg/kg, 15 min): −0.1 ± 0.4 bpm | ∆ Mean Arterial Pressure ([4]; IV infusion, 1 mg/kg, 15 min): 8.2 ± 7.9 mmHg | ∆ QRS Interval ([4]; IV infusion, 1 mg/kg, 15 min): 1.0 ± 0.8 | ∆ respiratory rate ([4]; IV infusion, 1 mg/kg, 15 min): −18.3 ± 9.3% | ∆ Heart Rate ([4]; IV infusion, 1 mg/kg, 30 min): 1.7 bpm | ∆ Mean Arterial Pressure ([4]; IV infusion, 1 mg/kg, 30 min): 7.5 mmHg | ∆ QRS Interval ([4]; IV infusion, 1 mg/kg, 30 min): 1.7 | ∆ respiratory rate ([4]; IV infusion, 1 mg/kg, 30 min): −7.8%
